Patent publication US5691365A, “Nicotinic receptor antagonists in the treatment of neuropharmacological disorders” (University of Kentucky Research Foundation, priority 1995, dated 1997)
“And” between values parts separate entries of the source, which are not always exact repeats. Identical values can stand only once. “Also recorded” adds a separate entry of the source.

Columns and labels:
[1] = tested on: [^3 H]DA release from rat striatal slices; experiment: [3H]DA release assay: compound-evoked (intrinsic agonist) release; format: cell-based; parameters: key to total [3H]overflow (effect on [3H]DA release): summed increase in fractional release (sample tritium / tissue tritium); conditions: for total [3H]overflow (effect on [3H]DA release): mean ± S.E.M.; for total [3H]overflow (effect on [3H]DA release) / effect on [3H]DA release / intrinsic agonist activity (in words): rat striatal slices
Protocol: (§1) Biological Methods. Male Spragua-Dawley rats (150-200 g) were obtained from Harlan Laboratories (Indianapolis, Ind.) and were housed two per cage with free access to food and water in the Division of Lab Animal Resources at the College of Pharmacy at the University of Kentucky. Experimental protocols involving the animals were approved by the Institutional Animal Care and Use Committee at the University of Kentucky.
(§2) [^3 H]DA Release Assay. Rat striatal slices (500 μm thickness, 6-8 mg wet weight) were obtained as previously described (Dwoskin and Zahniser, 1986). Slices were incubated for 30 min in Krebs' buffer ([…]; 118 NaCl, 4.7 KCl, 1.2 MgCl2, 1.0 NaH2 PO4, 1.3 CaCl2, […], 11.1 glucose, 25 NaHCO3, 0.11 L-ascorbic acid nd 0.004 disodium EDTA; pH 7.4 and saturated with 95% O2 /5% CO2) in a metabolic shaker at 34°. Slices were rinsed with 15 ml of fresh buffer and incubated for an additional 30 min in fresh buffer containing 0.1 μM [^3 H]dopamine (6 slices/3 ml). Subsequently, slices were rinsed with 15 ml of fresh buffer and transferred to a glass superfusion chamber. Slices were superfused (1.0 ml/min) for 60 min with Krebs' buffer containing nomifensine (10 μm) and pargyline (10 μm) and maintained at 34° C., pH 7.4 with continual aeration (95% O2 /5% CO2). Two 5-min samples (5 ml) were collected to determine basal outflow of [^3 H]DA. N-Substituted nicotine analogues were added to the superfusion buffer after the collection of the second sample and remained in the buffer until 12 consecutive 5-min samples were collected. […] At the end of the experiment each slice was solubilized and the [^3 H] content of the tissue determined.
(§3) Radioactivity in the superfusate and tissue samples was determined by liquid scintillation spectroscopy. Fractional release for each superfusate sample was calculated by dividing the total tritium collected in each sample by the total tritium present in the tissue at the time of sample collection. Basal [^3 H]out flow was calculated from the average of the tritium collected in the two 5-min samples just before addition of the N-substituted nicotine analogue. The sums of the increase in collected tritium resulting from either exposure to the test compound or exposure to nicotine in the absence and presence of the test compound equaled total [^3 H]overflow. [^3 H]overflow was calculated by subtracting the [^3 H]outflow during an equivalent period of prestimulation from the values in samples collected during and after drug exposure. Inasmuch as the radiolabelled compounds were not separated and identified, the tritium collected in superfusate is referred to as either [^3 H]outflow or [^3 H]overflow, rather than as [^3 H]DA. [^3 H]Overflow primarily represents [^3 H]DA in the presence of nomifensine and pargyline in the superfusion buffer (Zumstein et al. 1981).

[2] = tested on: S(-)nicotine (10 μM)-evoked [^3 H]DA release from rat striatal slices; format: cell-based
Protocol: as §1, §2, §3
In these experiments, the striatal slices were superfused for 60 min with various concentrations of the analogues prior to nicotine (10 μM) exposure. Antagonist activity was evaluated by comparing the nicotine-evoked [^3 H]overflow in the absence and presence of the analogues. […] The relative order of potency of the classical and pyridine-N substituted nicotine analogues for inhibition of nicotine-evoked [^3 H]DA release from rat striatal slices is illustrated in FIG. 2 by a comparison of their IC50 values.
FIG. 2. IC50 values for N-substituted analogues of nicotine, nornicotine, and cotinine to inhibit nicotine-evoked [^3 H]DA release from rat striatal slices. Inhibition produced by the classical nicotinic inhibitors, mecamylamine (MEC) and DHBE was also determined. Slices were superfused with inhibitor for 60 min […] co-superfusion with 10 μM nicotine. Inhibition was determined by comparing [^3 H]DA release in the absence and presence of various concentrations of inhibitor. IC50 values were determined using the Logit-log plot (pseudo-Hill plot). […] IC50 for each animal was determined as the intercept of the linear regression.

[3] = Rattus norvegicus, read-out: evoked [3H]DA release relative to S(-)nicotine

Structure (SMILES)	total [3H]overflow (effect on [3H]DA release) ([1]; Table 3, 1 μM)	total [3H]overflow (effect on [3H]DA release) ([1]; Table 3, 10 μM)	total [3H]overflow (effect on [3H]DA release) ([1]; Table 3, 100 μM)	nicotinic antagonist activity / inhibition of nicotine-evoked [3H]DA release (in words) [2]	relative order of potency for inhibition of nicotine-evoked [3H]DA release (comparison of IC50 values) [2]	total [3H]overflow during cosuperfusion with 10 μM nicotine [2]	effect on [3H]DA release / intrinsic agonist activity (in words) ([1]; 1-100 μM)	Emax [1, 3]	Emax at 1 µM [1, 3]	total [3H]overflow (effect on [3H]DA release) ([1]; Table 2, 1 μM)	total [3H]overflow (effect on [3H]DA release) ([1]; Table 2, 10 μM)	total [3H]overflow (effect on [3H]DA release) ([1]; Table 2, 100 μM)	effect on [3H]DA release / intrinsic agonist activity (in words) ([1]; 1-100 μM as stated, listed as Racemic nornicotine)	effect on [3H]DA release / intrinsic agonist activity (in words) ([1]; 1-100 μM as stated, listed as nornicotine)	effect on [3H]DA release / intrinsic agonist activity (in words) ([1]; 1-100 μM as stated, listed as Cotinine)	effect on [3H]DA release / intrinsic agonist activity (in words) ([1]; 1-100 μM as stated, listed as S(-)Cotinine)
C=CCN1CCCC1c1ccc[n+](CC=C)c1 (racemic) [(±)DNANI, (±)di-N-allyl nicotinium iodide]	0.02 ± 0.01	0.08 ± 0.04	0.00 ± 0.00	did not exhibit significant nicotinic antagonist activity over the concentration range tested; also recorded: relatively weak antagonist activity compared to the N-allyl nicotine analogue (NANI)	(±)di-N-allyl nicotinium iodide (DNANI)=(±)N-methyl nornicotinium iodide (NMNNI)=NMNI	2.58 ± 0.54 and 1.85 ± 0.25 and 1.66 ± 0.36	–	–	–	–	–	–	–	–	–	–
C[n+]1cccc(C2CCCN2)c1 (racemic) [(±)NMNNI, (±)N-methyl nornicotinium iodide]	0.17 ± 0.11	0.01 ± 0.01	2.60 ± 0.38	did not exhibit significant nicotinic antagonist activity over the concentration range tested	(±)di-N-allyl nicotinium iodide (DNANI)=(±)N-methyl nornicotinium iodide (NMNNI)=NMNI	2.22 ± 1.26 and 3.53 ± 0.85	evoked [^3 H]DA release and thus, possess intrinsic agonist activity at this concentration	–	–	–	–	–	–	–	–	–
c1cncc([C@@H]2CCCN2)c1 (racemic) [(±)nornicotine, racemic nornicotine, reference compound]	–	–	–	–	–	–	–	~80%	50%	1.40 ± 0.24	2.60 ± 0.38	4.20 ± 0.34	concentration-dependent increase in [^3 H]DA release	less potent in producing this effect	–	–
CO[C@H]1CC=C2CCN3CCC4=C(CC(=O)OC4)[C@]23C1 [DHBE, dihydro-β-erythroidine, reference compound]	0.02 ± 0.02	0.36 ± 0.22	2.01 ± 0.28	inhibited but did not completely block nicotine's effect	DHBE=MEC>>NBNB	–	None of the compounds examined, including DHBE and mecamylmine, had any significant effect on [^3 H]DA release in the concentration range of 1-10 μM; also recorded: also evoked [^3 H]DA release; also recorded: evoked [^3 H]DA release at the highest concentration examined	–	–	–	–	–	–	–	–	–
CNC1(C)C2CCC(C2)C1(C)C (centres unmarked) [MEC, mecamylamine, reference compound]	0.00 ± 0.00	0.00 ± 0.00	0.00 ± 0.00	inhibited but did not completely block nicotine's effect	DHBE=MEC>>NBNB	–	None of the compounds examined, including DHBE and mecamylmine, had any significant effect on [^3 H]DA release in the concentration range of 1-10 μM	–	–	–	–	–	–	–	–	–
CN1C(=O)CC[C@H]1c1cccnc1 [S(-)cotinine, reference compound]	–	–	–	–	–	–	–	35%	–	0 ± 0	1.14 ± 0.36	2.06 ± 0.35	–	–	no effect at 1 μM	little effect even at high concentrations in the DA release assay
